Legend:
Heparanase = biological target: T1, Heparanase (Homo sapiens, UniProt Q9Y251); assay: In vitro inhibitory concentration against human Heparanase
T1 sequence (Q9Y251 whole entry): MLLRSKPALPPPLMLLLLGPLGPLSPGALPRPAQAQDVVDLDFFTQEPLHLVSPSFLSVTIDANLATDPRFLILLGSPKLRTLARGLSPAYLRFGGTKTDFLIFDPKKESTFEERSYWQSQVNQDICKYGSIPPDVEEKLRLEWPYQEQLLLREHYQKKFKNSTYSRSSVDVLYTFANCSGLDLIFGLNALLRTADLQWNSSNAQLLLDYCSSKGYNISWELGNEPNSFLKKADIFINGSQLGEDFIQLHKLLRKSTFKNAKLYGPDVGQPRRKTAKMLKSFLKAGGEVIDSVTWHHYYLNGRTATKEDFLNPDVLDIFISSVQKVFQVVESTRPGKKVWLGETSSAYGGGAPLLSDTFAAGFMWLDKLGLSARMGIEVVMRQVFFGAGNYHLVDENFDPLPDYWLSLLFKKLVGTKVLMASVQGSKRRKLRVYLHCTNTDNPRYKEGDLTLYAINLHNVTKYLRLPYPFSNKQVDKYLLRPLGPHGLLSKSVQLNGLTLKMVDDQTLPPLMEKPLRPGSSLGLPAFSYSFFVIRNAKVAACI

[1] = In vitro anti-angiogenic activity in Human endothelial cells; assay type: functional, cell-based; settings: endothelial cell
Cytochrome P450 2C9 = Cytochrome P450 2C9 (Homo sapiens, UniProt P11712); assay: In vitro inhibitory concentration against Cytochrome P450 2C9; assay type: ADME
Sequence of Cytochrome P450 2C9 (P11712 whole entry): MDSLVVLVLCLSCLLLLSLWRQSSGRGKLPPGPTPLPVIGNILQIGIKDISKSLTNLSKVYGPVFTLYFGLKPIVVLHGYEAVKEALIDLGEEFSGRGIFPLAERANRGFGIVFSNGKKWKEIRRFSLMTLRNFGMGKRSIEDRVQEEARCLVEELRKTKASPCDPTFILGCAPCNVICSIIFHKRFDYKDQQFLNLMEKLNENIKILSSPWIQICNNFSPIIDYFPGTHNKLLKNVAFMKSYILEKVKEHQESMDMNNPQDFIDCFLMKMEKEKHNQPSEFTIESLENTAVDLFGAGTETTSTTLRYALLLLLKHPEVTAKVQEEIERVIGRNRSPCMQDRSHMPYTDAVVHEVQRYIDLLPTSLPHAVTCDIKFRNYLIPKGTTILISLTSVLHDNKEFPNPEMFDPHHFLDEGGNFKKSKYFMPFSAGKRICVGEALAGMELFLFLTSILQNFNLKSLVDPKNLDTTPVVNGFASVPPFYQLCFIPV

| IC50 [1] [µM] | SMILES | further results |
| --- | --- | --- |
| – | O=C(O)Cc1ccc2oc(-c3ccc(NC(=O)c4ccc(Br)cc4)cc3Cl)nc2c1 | IC50 (Heparanase): > 10 µM |
| 0.5 | O=C(O)Cc1nc(-c2ccc(-c3ccc(NC(=O)c4ccc(OC(F)(F)F)cc4)cc3Cl)o2)cs1 | – |
| 0.2 | O=C(O)Cc1ccc2oc(-c3ccc(NC(=O)/C=C/c4ccc(Cl)c(Cl)c4)c(F)c3)nc2c1 | – |
| – | COc1ccccc1NC(=O)/C=C/c1ccc(-c2nc3cc(CC(=O)O)ccc3o2)cc1 | IC50 (Heparanase): > 10 µM |
| 7.5 | O=C(O)Cc1ccc2oc(-c3ccc(NC(=O)/C=C/c4cccc(Cl)c4)c(F)c3)nc2c1 | – |
| 1 | O=C(O)Cc1ccc2oc(-c3ccc(NC(=O)/C=C/c4cccc(Br)c4)c(F)c3)nc2c1 | – |
| – | COc1ccc(NC(=O)/C=C/c2ccc(-c3nc4cc(CC(=O)O)ccc4o3)cc2)cc1OC | IC50 (Heparanase): > 10 µM |
| – | O=C(O)Cc1nc(-c2ccc(-c3ccc(NC(=O)c4ccccc4)cc3Cl)o2)cs1 | IC50 (Heparanase): > 30 µM |
| 1 | O=C(O)Cc1ccc2oc(-c3ccc(NC(=O)/C=C/c4ccc(Br)cc4)c(F)c3)nc2c1 | IC50 (Cytochrome P450 2C9): > 30 µM |
| 20 | O=C(O)Cc1ccc2oc(-c3ccc(NC(=O)/C=C/c4cccc(Br)c4)cc3Cl)nc2c1 | – |
| > 20 | O=C(O)Cc1nc(-c2ccc(-c3ccc(NC(=O)/C=C/c4ccc(Cl)cc4Cl)cc3Cl)o2)cs1 | – |
| 2 | O=C(O)Cc1nc(-c2ccc(-c3ccc(NC(=O)c4ccc(Cl)cc4)cc3Cl)o2)cs1 | – |
| – | O=C(O)Cc1ccc2oc(-c3ccc(NC(=O)/C=C/c4ccccc4)cc3Cl)nc2c1 | IC50 (Heparanase): > 30 µM |
| 1 | O=C(O)Cc1ccc2oc(-c3ccc(NC(=O)/C=C/c4ccc(F)c(Cl)c4)c(F)c3)nc2c1 | – |
| 5 | COc1ccc(/C=C/C(=O)Nc2ccc(-c3ccc(-c4csc(CC(=O)O)n4)o3)c(Cl)c2)cc1 | – |
| > 20 | O=C(O)Cc1ccc2oc(-c3ccc(NC(=O)/C=C/c4ccc(Cl)cc4Cl)c(F)c3)nc2c1 | – |
| 20 | O=C(O)Cc1ccc2oc(-c3ccc(NC(=O)/C=C/c4ccc(Br)cc4)cc3)nc2c1 | – |
| 5 | O=C(O)Cc1ccc2oc(-c3ccc(NC(=O)/C=C/c4ccc(Cl)cc4Cl)cc3Cl)nc2c1 | – |
| 0.5 | O=C(O)Cc1nc(-c2ccc(-c3ccc(NC(=O)c4ccc(Cl)cc4Cl)cc3Cl)o2)cs1 | – |
| 1 | O=C(O)Cc1nc(-c2ccc(-c3ccc(NC(=O)/C=C/c4ccc(Br)cc4)cc3Cl)o2)cs1 | – |
| 1 | N#Cc1ccc(/C=C/C(=O)Nc2ccc(-c3nc4cc(CC(=O)O)ccc4o3)cc2F)cc1 | – |
| 7.5 | O=C(O)Cc1nc(-c2ccc(-c3ccc(NC(=O)c4ccc(C(F)(F)F)cc4)cc3Cl)o2)cs1 | – |
| 20 | O=C(O)Cc1nc(-c2ccc(-c3ccc(NC(=O)/C=C/c4ccc(OC(F)(F)F)cc4)cc3Cl)o2)cs1 | – |
| > 20 | N#Cc1cccc(C(=O)Nc2ccc(-c3ccc(-c4csc(CC(=O)O)n4)o3)c(Cl)c2)c1 | – |
| 5 | O=C(O)Cc1ccc2oc(-c3ccc(NC(=O)/C=C/c4cccc(Cl)c4F)c(F)c3)nc2c1 | – |
| 7.5 | O=C(O)Cc1ccc2oc(-c3ccc(NC(=O)/C=C/c4ccc(Br)cc4)cc3Cl)nc2c1 | – |
| > 20 | O=C(O)Cc1ccc2oc(-c3ccc(NC(=O)/C=C/c4cccc(Br)c4)cc3)nc2c1 | – |
| 15 | O=C(O)Cc1nc(-c2ccc(-c3ccc(NC(=O)/C=C/c4ccccc4)cc3Cl)o2)cs1 | – |
